One test relates to VCaP. The experiment in a line: Antitumor activity against human VCaP cells xenografted in SCID mouse assessed as tumor growth inhibition at 10 mg/kg, sc administered every 3 days for 16 days relative to control. As to conditions: read-out: TGI. Format: functional. A general note: In xenograft studies the graft and the host belong to different species.
Test [1] deals with von Hippel-Lindau disease tumor suppressor/Bromodomain-containing protein 2 (Homo sapiens, UniProt P25440+P40337). Put plainly: Proteolysis targeting chimera activity in human 22Rv1 cells assessed as induction of VHL-mediated delivery of BRD2 for protein degradation by proteasome by measuring drug level causing 50% substrate depletion incubated for 16 hrs by Western blot method. The class given is cell-based. (In general: In western blotting, separated proteins are transferred to a membrane and probed.)

Test [2] concerns the target Protein cereblon/Peptidyl-prolyl cis-trans isomerase FKBP1A (Homo sapiens, UniProt P62942+Q96SW2). Put plainly: Proteolysis targeting chimera activity in human MV4-11 cells assessed as induction of cereblon-mediated delivery of FKBP12 for protein degradation by proteasome incubated for 18 hrs by immuno blot analysis. The class given is cell-based.
Test [3] concerns the target T1, Protein cereblon/Bromodomain-containing protein 4 (Homo sapiens, UniProt O60885+Q96SW2). Put plainly: Proteolysis targeting chimera activity in human MV4-11 cells assessed as induction of cereblon-mediated delivery of BRD4 for protein degradation by proteasome at 100 nM incubated for 18 hrs by immuno blot analysis. The class given is cell-based.
The subject of the next test is Heart. The experiment in a line: In vivo induction of ERRalpha degradation in CD-1 mouse heart at 100 mg/kg, ip every 8 hrs measured 5 hrs post last dose by LC/MS analysis relative to control. Format: functional.
Test [4] addresses von Hippel-Lindau disease tumor suppressor/Steroid hormone receptor ERR1 (Homo sapiens, UniProt P11474+P40337). The experiment in a line: Proteolysis targeting chimera activity in human MCF7 cells assessed as induction of VHL-mediated delivery of ERRalpha for protein degradation by proteasome by measuring drug level causing 50% substrate depletion incubated for 24 hrs by Western blot method. Format: cell-based.

The next test has as its system MDA-MB-231. The experiment in a line: In vivo induction of ERRalpha degradation in human MDA-MB-231 cells xenografted in […] mouse at 100 mg/kg, ip every 8 hrs measured 5 hrs post last dose by LC/MS analysis relative to control. Format: functional.
A further test relates to Kidney. The experiment in a line: In vivo induction of ERRalpha degradation in CD-1 mouse kidney at 100 mg/kg, ip every 8 hrs measured 5 hrs post last dose by LC/MS analysis relative to control. The class given is functional.
The target in test [5] is Protein cereblon/Tyrosine-protein kinase ABL1/Breakpoint cluster region protein (Homo sapiens) (UniProt P00519+P11274+Q96SW2). Put plainly: Proteolysis targeting chimera activity in human K562 cells assessed as induction of cereblon-mediated delivery of BCR-ABL for protein degradation by proteasome at 1 uM after 24 hrs by immuno blot analysis relative to control. The class given is cell-based.

The target in test [6] is Protein cereblon/Tyrosine-protein kinase ABL1 (Homo sapiens) (UniProt P00519+Q96SW2). Put plainly: Proteolysis targeting chimera activity in human K562 cells assessed as induction of cereblon-mediated delivery of ABL for protein degradation by proteasome at 1 uM after 24 hrs by immuno blot analysis relative to control. Format: cell-based.
In test [7] the target is T1, Protein cereblon/Bromodomain-containing protein 4. The experiment in a line: Proteolysis targeting chimera activity in human BL cells assessed as induction of cereblon-mediated delivery of BRD4 for protein degradation by proteasome by immuno blot analysis. The class given is cell-based.

The structures appear in SMILES notation.

Chain of Protein cereblon/Tyrosine-protein kinase ABL1 (Homo sapiens) (P00519 whole entry, looked up): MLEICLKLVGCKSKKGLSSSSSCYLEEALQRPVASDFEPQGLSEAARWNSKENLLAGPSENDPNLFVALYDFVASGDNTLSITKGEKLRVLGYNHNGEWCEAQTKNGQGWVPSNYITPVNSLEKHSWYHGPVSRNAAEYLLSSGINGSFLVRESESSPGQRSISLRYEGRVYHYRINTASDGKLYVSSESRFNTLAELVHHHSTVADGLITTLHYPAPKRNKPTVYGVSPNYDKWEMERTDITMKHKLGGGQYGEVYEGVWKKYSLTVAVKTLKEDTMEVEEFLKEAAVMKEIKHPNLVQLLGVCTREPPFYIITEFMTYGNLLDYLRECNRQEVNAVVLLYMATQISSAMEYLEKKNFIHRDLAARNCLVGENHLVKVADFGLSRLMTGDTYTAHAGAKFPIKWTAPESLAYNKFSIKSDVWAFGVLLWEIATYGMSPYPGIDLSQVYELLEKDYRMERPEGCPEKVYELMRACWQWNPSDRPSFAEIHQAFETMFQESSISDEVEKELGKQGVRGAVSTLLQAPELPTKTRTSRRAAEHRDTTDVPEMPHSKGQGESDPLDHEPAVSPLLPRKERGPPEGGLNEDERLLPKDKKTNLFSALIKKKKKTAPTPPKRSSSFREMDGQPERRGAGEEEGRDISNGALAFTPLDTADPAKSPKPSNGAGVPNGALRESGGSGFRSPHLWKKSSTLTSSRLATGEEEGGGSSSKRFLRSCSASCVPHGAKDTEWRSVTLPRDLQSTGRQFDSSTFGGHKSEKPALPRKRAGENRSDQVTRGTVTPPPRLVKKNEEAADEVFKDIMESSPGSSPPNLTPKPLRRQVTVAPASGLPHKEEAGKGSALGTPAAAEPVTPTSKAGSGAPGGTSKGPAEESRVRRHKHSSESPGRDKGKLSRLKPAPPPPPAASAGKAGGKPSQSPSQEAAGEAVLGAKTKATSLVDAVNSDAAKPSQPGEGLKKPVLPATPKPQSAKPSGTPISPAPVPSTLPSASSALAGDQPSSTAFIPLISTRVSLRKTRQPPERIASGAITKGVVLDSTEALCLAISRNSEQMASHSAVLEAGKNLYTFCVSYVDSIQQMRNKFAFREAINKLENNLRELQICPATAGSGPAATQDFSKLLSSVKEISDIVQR
Chain of Protein cereblon/Tyrosine-protein kinase ABL1 (Homo sapiens) (Q96SW2 whole entry, looked up): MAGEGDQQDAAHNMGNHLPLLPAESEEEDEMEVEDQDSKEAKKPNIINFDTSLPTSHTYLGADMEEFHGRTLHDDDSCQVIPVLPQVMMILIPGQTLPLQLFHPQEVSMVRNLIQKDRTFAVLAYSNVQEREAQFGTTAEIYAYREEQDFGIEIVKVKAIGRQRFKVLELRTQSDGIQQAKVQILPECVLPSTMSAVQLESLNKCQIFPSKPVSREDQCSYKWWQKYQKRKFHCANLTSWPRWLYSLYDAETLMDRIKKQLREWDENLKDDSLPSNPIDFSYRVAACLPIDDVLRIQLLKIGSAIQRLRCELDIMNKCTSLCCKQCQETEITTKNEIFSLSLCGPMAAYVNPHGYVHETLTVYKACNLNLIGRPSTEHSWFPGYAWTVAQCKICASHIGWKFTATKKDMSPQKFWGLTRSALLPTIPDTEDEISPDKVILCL
Chain of Protein cereblon/Tyrosine-protein kinase ABL1/Breakpoint cluster region protein (Homo sapiens) (P00519 whole entry, looked up): as the sequence (P00519 whole entry, looked up) above
Chain of Protein cereblon/Tyrosine-protein kinase ABL1/Breakpoint cluster region protein (Homo sapiens) (P11274 whole entry, looked up): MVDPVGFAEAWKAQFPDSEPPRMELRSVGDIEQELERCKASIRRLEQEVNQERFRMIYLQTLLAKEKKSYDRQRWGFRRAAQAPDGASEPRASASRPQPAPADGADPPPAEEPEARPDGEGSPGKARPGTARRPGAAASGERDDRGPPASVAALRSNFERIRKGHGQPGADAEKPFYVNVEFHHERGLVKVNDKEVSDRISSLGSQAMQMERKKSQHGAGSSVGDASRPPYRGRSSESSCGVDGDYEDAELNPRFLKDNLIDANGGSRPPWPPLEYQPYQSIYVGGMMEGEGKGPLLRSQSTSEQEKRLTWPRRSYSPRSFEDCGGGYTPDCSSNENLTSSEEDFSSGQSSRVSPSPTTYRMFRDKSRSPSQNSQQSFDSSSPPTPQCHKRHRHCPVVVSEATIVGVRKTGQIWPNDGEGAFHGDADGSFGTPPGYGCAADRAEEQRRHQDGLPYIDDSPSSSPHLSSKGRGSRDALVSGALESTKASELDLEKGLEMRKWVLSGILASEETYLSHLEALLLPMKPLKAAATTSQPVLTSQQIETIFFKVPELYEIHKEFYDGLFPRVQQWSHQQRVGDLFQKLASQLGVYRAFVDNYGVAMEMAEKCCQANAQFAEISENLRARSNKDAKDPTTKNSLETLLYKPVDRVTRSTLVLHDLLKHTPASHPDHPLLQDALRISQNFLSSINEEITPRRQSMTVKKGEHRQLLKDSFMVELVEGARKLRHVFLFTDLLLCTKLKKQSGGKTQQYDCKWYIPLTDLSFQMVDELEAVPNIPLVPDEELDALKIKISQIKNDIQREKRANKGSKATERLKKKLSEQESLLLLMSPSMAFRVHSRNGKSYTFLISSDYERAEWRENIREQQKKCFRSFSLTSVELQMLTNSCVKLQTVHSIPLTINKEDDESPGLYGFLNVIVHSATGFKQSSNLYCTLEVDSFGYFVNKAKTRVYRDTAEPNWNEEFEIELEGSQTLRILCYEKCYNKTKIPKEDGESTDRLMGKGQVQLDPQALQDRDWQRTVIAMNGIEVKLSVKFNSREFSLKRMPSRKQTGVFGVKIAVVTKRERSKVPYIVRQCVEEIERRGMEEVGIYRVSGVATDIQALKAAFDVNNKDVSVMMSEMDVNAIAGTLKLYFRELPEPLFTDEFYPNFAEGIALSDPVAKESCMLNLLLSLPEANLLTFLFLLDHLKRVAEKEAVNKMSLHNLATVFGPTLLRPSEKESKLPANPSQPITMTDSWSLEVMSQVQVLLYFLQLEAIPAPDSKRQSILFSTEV
Chain of Protein cereblon/Tyrosine-protein kinase ABL1/Breakpoint cluster region protein (Homo sapiens) (Q96SW2 whole entry, looked up): as the sequence (Q96SW2 whole entry, looked up) above
T1 sequence (Q96SW2 whole entry, looked up, other chains not shown): as the sequence (Q96SW2 whole entry, looked up) above

Broadly, the IC50 is the point on the concentration scale where inhibition reaches its midpoint. As for `Cc1ncsc1-c1ccc([C@H](C)NC(=O)[C@@H]2C[C@@H](O)CN2C(=O)[C@@H](NC(=O)COCCCOCCNC(=O)C[C@@H]2N=C(c3ccc(Cl)cc3)c3c(sc(C)c3C)-n3c(C)nnc32)C(C)(C)C)cc1`, the inhibition in vivo at 10 mg/kg in the test with VCaP stood at 60%. Also, the IC50 in test [1] was less than 5 nM.
Consider `CCC(C)(C)C(=O)C(=O)N1CCCC[C@H]1C(=O)O[C@H](CCc1ccc(OC)c(OC)c1)c1cccc(NC(=O)CCC(=O)NCCNC(=O)COc2cccc3c2C(=O)N(C2CCC(=O)NC2=O)C3=O)c1` (stereo partly drawn), for which the IC50 in [2] was determined as 10 nM.
On to `Cc1sc2c(c1C)C(c1ccc(Cl)cc1)=C[C@@H](CC(=O)NCCCCNC(=O)COc1cccc3c1C(=O)N(C1CCC(=O)NC1=O)C3=O)c1nnc(C)n1-2` (stereo partly drawn), for which the Imax in test [3] is greater than 85%.
`COc1cc(/C=C2\SC(=O)N(CCOCCC(=O)N[C@H](C(=O)N3C[C@H](O)C[C@H]3C(=O)NCc3ccc(-c4scnc4C)cc3)C(C)(C)C)C2=O)ccc1Oc1ccc(C#N)cc1C(F)(F)F`: the Activity with Heart, in the test on MDA-MB-231 and in the test on Kidney was 40% throughout. Also, the IC50 in test [4] is 100 nM.
`COc1cc(Nc2c(C#N)cnc3cc(OCCCN4CCN(CCCCCCOCCOCCOCCCCCc5cccc6c5C(=O)N(C5CCC(=O)NC5=O)C6=O)CC4)c(OC)cc23)c(Cl)cc1Cl` (stereo not drawn): the Imax in [5] is 80%; in test [6], 90%.
Regarding `Cc1nc(Nc2ncc(C(=O)Nc3c(C)cccc3Cl)s2)cc(N2CCN(CCCCCCOCCOCCOCCCCCc3cccc4c3C(=O)N(C3CCC(=O)NC3=O)C4=O)CC2)n1` (stereo not drawn), the values for the Imax in test [5] and in [6] were greater than 60% and greater than 85%, respectively.
On to `Cc1sc2c(c1C)C(c1ccc(Cl)cc1)=C[C@@H](CC(=O)Nc1ccc(OCCOCCOCCOCCNc3cccc4c3C(=O)N(C3CCC(=O)NC3=O)C4=O)cc1)c1nnc(C)n1-2` (stereo partly drawn), for which the IC50 in test [7] is less than 1 nM.

Values taken from ChEMBL document CHEMBL4190166 (Medchemcomm, 2016).
